Laboratory results from patent publication US10314806B2 (SICHUAN JIUZHANG BIOLOGICAL SCIENCE AND TECHNOLOGY CO., LTD., priority 2014, dated 2019).

Assays:
Type in all cases: in vivo
EMT-6 breast cancer = test: Inhibition of BABLc mice-transplanted tumor of EMT-6 breast cancer; conditions: for Inhibitory rate / Tumor weight: 9 days
Protocol: (1) Animal BABLc mice, ♀, body weight 17˜21 g
Cell Lines EMT-6 cell lines were mice breast cancer cells, and grew adhering to the wall in RPMI-1640 complete media containing 10% calf serum, 1 mmol/L glutamine, 100 U·ml^−1 penicillin and 100 μg·ml^−1 streptomycin, and were cultured in an incubator at 37° C. under 5% CO2, followed by changing the medium and subculturing every two or three days.
Viable cells were counted by trypan blue staining. Cell suspension was subcutaneously inoculated at the left forelimb armpit of mice at 0.2 ml/animal (containing about 1×10^7 cells), and after tumor grew to 1 cm×1 cm×1 cm, mice were used in experiment. Mice tumors were aseptically stripped, and washed with Hank's solution thrice, to remove blood, fat and necrotic tissues. Tumors were cut to broken pieces of 1 mm×1 mm×1 mm, and washed with Hank's solution twice, to which physiological saline was added at a ratio of (1 g:3 ml), and then ground in a glass homogenizer and filtered by 80-100 mesh sieve to make a suspension of single cell. Viable cells were counted by trypan blue staining.
On the second day after inoculation, a dosage of 0.2 ml·10 g^−1 was administrated to each group by intraperitoneal injection (ip) for successive 9 days, once a day. When the tumor weight in negative group was more than 1.0 g(tumor volume being about 0.5 cm^3), the experiment was stopped, and mice were sacrificed by cervical vertebrae removal and weighed. Tumors were stripped to calculate inhibitory rate.

human brain glioma = test: Inhibition of mice-transplanted human brain glioma; conditions: for Inhibitmy rate / Tumor weight: 15 days, mice
Protocol: Human brain glioma cell lines were obtained from Key Laboratory of Transplant Engineering and Immunology, Ministry of health, West China Hospital, Sichuan University.
(1) Model establishment Mice were divided into groups, 10 mice for each group. The solution of brain glioblastoma cell lines was suitably diluted, and inoculated in cortex of left temporal lobe of mice, respectively.
Administration and intervention 24 h after inoculation, mice in each group were administrated by intraperitoneal injection. […] Each group was administrated for successive 15 days.
Determination of tumor inhibitory rate On the last day, the administration was stopped, and all mice were sacrificed and dissected. Tumor tissues were stripped and weighed. Tumor inhibitory rate %=(The mean tumor weight of control group−The mean tumor weight of drug groups)[The mean tumor weight of control group]×100%.
Statistical method The variance analysis of data was performed using the statistical program software package (SPSS13.0 for Windows), and p<0.05 was considered to be a statistically significant difference.

H22 liver cancer = test: Inhibition of KM mice-transplanted tumor of H22 liver cancer
Protocol: (1) Animal Kunming mice, half male and half female, body weight 16˜27 g.
Cell Lines H22 cell lines were mice liver cancer cells, and were subjected to suspension growth in RPMI-1640 media containing 10% calf serum, 100 U·ml^−1 penicillin, 100 μg·ml^−1 streptomycin, and cultured in an incubator at 37° C. under 5% CO2, followed by changing the medium and subculturing every two or three days.
Cell Culture H22 cells in exponential phase of growth were collected, centrifugated at 1000 rpm for 5 min, and washed twice. Viable cells were counted by trypan blue staining. The cells were quickly inoculated in abdominal cavity of KM mice, and after 7˜10 days, ascites were drawn and subcutaneously inoculated at the left forelimb armpit of mice at 0.2 ml/animal (containing about 2×10^7 cells). When tumor grew to 1 cm×1 cm×1 cm, mice were used in experiment. Mice tumors were aseptically stripped, and washed with Hank's solution thrice, to remove blood, fat and necrotic tissues. Tumors were cut to broken pieces of 1 mm×1 mm×1 mm, and washed with Hank's solution twice, to which physiological saline was added at a ratio of (1 g:3 ml), and then ground in a glass homogenizer and filtered by 80-100 mesh sieve to make a suspension of single cell. Viable cells were counted by trypan blue staining.
On the second day after inoculation, a dosage of 0.2 ml·10 g^−1 was administrated by intravenous injection (iv), once a day. When the average tumor weight in negative group was more than 1.0 g (tumor volume being about 0.5 cm^3), the experiment was stopped, and mice were sacrificed by cervical vertebrae removal and weighed. Tumors were stripped to calculate inhibitory rate.

[1] = compared with the negative control group, obvious in the dosage groups of 10 mg/kg-60 mg/kg
[2] = 1 mg·kg^−1 intraperitoneal injection
[3] = 5 mg·kg^−1 intraperitoneal injection
[4] = 10 mg·kg^−1 intraperitoneal injection
[5] = 30 mg·kg^−1 intraperitoneal injection
[6] = 40 mg·kg^−1 intraperitoneal injection
[7] = 50 mg·kg^−1 intraperitoneal injection
[8] = 60 mg·kg^−1 intraperitoneal injection
[9] = 70 mg·kg^−1 intraperitoneal injection
[10] = 90 mg·kg^−1 intraperitoneal injection
[11] = 100 mg·kg^−1 intraperitoneal injection

## O=C(/C=C/c1ccc(O)c(O)c1)O[C@@H]1C[C@](O)(C(=O)O)C[C@@H](O)[C@H]1O [Chlorogenic acid of the present invention]
EMT-6 breast cancer; 1 mg·kg^−1 ip once a day
  Inhibitory rate: 26.40%
  Tumor weight: 0.987 ± 0.154 g
EMT-6 breast cancer; 5 mg·kg^−1 ip once a day
  Inhibitory rate: 41.16%
  Tumor weight: 0.789 ± 0.087 g
EMT-6 breast cancer; 10 mg·kg^−1 ip once a day
  Inhibitory rate: 48.55%
  Tumor weight: 0.690 ± 0.188 g
EMT-6 breast cancer; 20 mg·kg^−1 ip once a day
  Inhibitory rate: 69.95%
EMT-6 breast cancer; 30 mg·kg^−1 ip once a day
  Inhibitory rate: 68.01%
EMT-6 breast cancer; 40 mg·kg^−1 ip once a day
  Inhibitory rate: 66.37%
  Tumor weight: 0.451 ± 0.097 g
EMT-6 breast cancer; 50 mg·kg^−1 ip once a day
  Inhibitory rate: 60.55%
  Tumor weight: 0.529 ± 0.168 g
EMT-6 breast cancer; 60 mg·kg^−1 ip once a day
  Inhibitory rate: 49.22%
  Tumor weight: 0.681 ± 0.156 g
EMT-6 breast cancer; 70 mg·kg^−1 ip once a day
  Inhibitory rate: 47.95%
  Tumor weight: 0.698 ± 0.112 g
EMT-6 breast cancer; 80 mg·kg^−1 ip once a day
  Inhibitory rate: 41.16%
  Tumor weight: 0.789 ± 0.087 g
EMT-6 breast cancer; 90 mg·kg^−1 ip once a day
  Inhibitory rate: 35.94%
  Tumor weight: 0.859 ± 0.0754 g
EMT-6 breast cancer; 100 mg·kg^−1 ip once a day
  Inhibitory rate: 25.80%
  Tumor weight: 0.995 ± 0.0256 g
EMT-6 breast cancer; [1]
  inhibitory action on BABLc mice-transplanted tumor of EMT-6: obviously inhibitory action
Human brain glioma; [2]
  Inhibitmy rate: 13.30%
  Tumor weight: 1.258 ± 0.254 g
Human brain glioma; [3]
  Inhibitmy rate: 16.06%
  Tumor weight: 1.218 ± 0.187 g
Human brain glioma; [4]
  Inhibitmy rate: 52.45%
  Tumor weight: 0.690 ± 0.128 g
Human brain glioma; 20 mg·kg^−1 intraperitoneal injection
  Inhibitmy rate: 70.71%
Human brain glioma; [5]
  Inhibitmy rate: 68.57%
  Tumor weight: 0.456 ± 0.128 g
Human brain glioma; [6]
  Inhibitmy rate: 62.03%
  Tumor weight: 0.551 ± 0.087 g
Human brain glioma; [7]
  Inhibitmy rate: 56.65%
  Tumor weight: 0.629 ± 0.068 g
Human brain glioma; [8]
  Inhibitmy rate: 51.69%
  Tumor weight: 0.701 ± 0.256 g
Human brain glioma; [9]
  Inhibitmy rate: 31.22%
  Tumor weight: 0.998 ± 0.212 g
Human brain glioma; 80 mg·kg^−1 intraperitoneal injection
  Inhibitmy rate: 18.06%
Human brain glioma; [10]
  Inhibitmy rate: 13.23%
  Tumor weight: 1.259 ± 0.124 g
Human brain glioma; [11]
  Inhibitmy rate: 8.27%
  Tumor weight: 1.331 ± 0.156 g
Human brain glioma; [1]
  inhibitory action on mice-transplanted tumor of human brain glioma: obviously inhibitory action
H22 liver cancer; 1 mg·kg^−1 iv once a day
  Inhibitory rate: 8.8%
  Tumor weight: 2.141 ± 0.333 g
H22 liver cancer; 5 mg·kg^−1 iv once a day
  Inhibitory rate: 24.7%
  Tumor weight: 1.768 ± 0.667 g
H22 liver cancer; 10 mg·kg^−1 iv once a day
  Inhibitory rate: 46.3%
  Tumor weight: 1.261 ± 0.388 g
H22 liver cancer; 20 mg·kg^−1 iv once a day
  Inhibitory rate: 54.8%
H22 liver cancer; 30 mg·kg^−1 iv once a day
  Inhibitory rate: 67.9%
  Tumor weight: 0.754 ± 0.071 g
H22 liver cancer; 40 mg·kg^−1 iv once a day
  Inhibitory rate: 72.2%
  Tumor weight: 0.653 ± 0.238 g
H22 liver cancer; 50 mg·kg^−1 iv once a day
  Inhibitory rate: 57.5%
  Tumor weight: 0.998 ± 0.207 g
H22 liver cancer; 60 mg·kg^−1 iv once a day
  Inhibitory rate: 42.9%
  Tumor weight: 1.341 ± 0.356 g
H22 liver cancer; 70 mg·kg^−1 iv once a day
  Inhibitory rate: 31.9%
H22 liver cancer; 80 mg·kg^−1 iv once a day
  Inhibitory rate: 24.1%
  Tumor weight: 1.782 ± 0.122 g
H22 liver cancer; 90 mg·kg^−1 iv once a day
  Inhibitory rate: 16.7%
  Tumor weight: 1.956 ± 0.581 g
H22 liver cancer; 100 mg·kg^−1 iv once a day
  Inhibitory rate: 11.5%
  Tumor weight: 2.078 ± 0.326 g
H22 liver cancer; [1]
  inhibitory action on KM mice-transplanted tumor of H22 liver cancer: obviously inhibitory action
